Here are results for eight compounds from US20190119251A1, “AMIDE-SUBSTITUTED ARYLTRIAZOLE DERIVATIVES AND USES THEREOF” (BAYER PHARMA AKTIENGESELLSCHAFT, priority 2016, published 2019).

pIC50: −log10 of the molar value.

For one assay, the target named is T1, human V2 receptor (Homo sapiens, UniProt P30518).
T1 construct: expressed in transfected cells; host or cells: CHO K1 (Chinese hamster ovary) expressing firefly luciferase under a CRE-responsive promoter
Briefly: Cellular in vitro assay for determining vasopressin receptor activity (V2 cell line, CRE-luciferase). In kind it is cell-based. As to conditions: CHO cell line transfected with the human V2 receptor; agonist [Arg8]-vasopressin at EC50 concentration; 3 hours incubation; read-out: IC50 hV2. As to the method: (§1) B-1. Cellular In Vitro Assay for Determining Vasopressin Receptor Activity
(§2) The identification of agonists and antagonists of the V 1 a and V2 vasopressin receptors from humans, rats and dogs as well as the quantification of the activity of the compounds of the invention is carried out using recombinant cell lines. These cell lines originally derive from a hamster's ovary epithelial cell (Chinese Hamster Ovary, CHO K1, ATCC: American Type Culture Collection, Manassas, Va. 20108, USA). The test cell lines constitutively express the human, rat or dog
(§3) V1 a or V2 receptors. In case of the Gag-coupled V 1 a receptors, cells are also stably transfected with a modified form of the calcium-sensitive photoproteins aequorin (human and rat V1a) or obelin (dog V 1 a), which, after reconstitution with the cofactor coelenterazine, emit light when there are increases in free calcium concentrations [Rizzuto R, Simpson A W, Brini M, Pozzan T, Nature 358, 325-327 (1992); Illarionov B A, Bondar V S, Illarionova V A, Vysotski E S, Gene 153 (2), 273-274 (1995)]. The resulting vasopressin receptor cells react to stimulation of the recombinantly expressed V 1 a receptors by intracellular release of calcium ions, which can be quantified by the resulting photoprotein luminescence. The Gs-coupled V2 receptors are stably transfected into cell lines expressing the gene for firefly luciferase under control of a CRE-responsible promoter. Activation of V2 receptors induces the activation of the CRE-responsive promoter via cAMP increase, thereby inducing the expression of firefly luciferase. The light emitted by photoproteins of V1a cell lines as well as the light emitted by firefly luciferase of V2 cell lines corresponds to the activation or inhibition of the respective vasopressin receptor. The bioluminescence of the cell lines is detected using a suitable luminometer [Milligan G, Marshall F, Rees S, Trends in Pharmacological Sciences 17, 235-237 (1996)].
Vasopressin V2 Receptor Cell Lines:
On the day before the assay, the cells are plated out in culture medium (DMEM/F12, 2% FCS, 2 mM glutamine, 10 mM HEPES) in 384-well microtiter plates and kept in a cell incubator (96% humidity, 5% v/v CO2, 37° C.). On the day of the assay, test compounds in various concentrations and the agonist [Arg^8]-vasopressin at EC50 concentration are added together to the wells, and plates are incubated for 3 hours in a cell incubator. Upon addition of the cell lysis reagent Triton™ and the substrate luciferin, luminescence of firefly luciferase is measured in a luminometer.
(§4) Table 1A below lists individual IC50 values for the compounds of the invention (including racemic mixtures as well as separated enantiomers) that were obtained from cell lines transfected with the human V1a or V2 receptor: […]

The target of the next assay is T2, human V1a receptor (Homo sapiens, UniProt P37288).
T2 construct: expressed in transfected cells; host or cells: CHO K1 (Chinese hamster ovary), also stably transfected with modified aequorin
Briefly: Cellular in vitro assay for determining vasopressin receptor activity (V1a cell line, aequorin luminescence). The class given is cell-based. The settings on record: for pIC50: CHO cell line transfected with the human V1a receptor, agonist [Arg8]-vasopressin at EC50 concentration, read-out: IC50 hV1a; for ratio IC50 hV2/hV1a: ratio of cellular IC50 values, human V2 over human V1a. As for the experimental part:
as §1, §2, §3
Vasopressin V1a Receptor Cell Lines:
On the day before the assay, the cells are plated out in culture medium (DMEM/F12, 2% FCS, 2 mM glutamine, 10 mM HEPES, 5 μg/ml coelenterazine) in 384-well microtiter plates and kept in a cell incubator (96% humidity, 5% v/v CO2, 37° C.). On the day of the assay, test compounds in various concentrations are placed for 10 minutes in the wells of the microtiter plate before the agonist [Arg^8]-vasopressin at EC50 concentration is added. The resulting light signal is measured immediately in a luminometer.
as §4

T2 sequence (P37288 whole entry): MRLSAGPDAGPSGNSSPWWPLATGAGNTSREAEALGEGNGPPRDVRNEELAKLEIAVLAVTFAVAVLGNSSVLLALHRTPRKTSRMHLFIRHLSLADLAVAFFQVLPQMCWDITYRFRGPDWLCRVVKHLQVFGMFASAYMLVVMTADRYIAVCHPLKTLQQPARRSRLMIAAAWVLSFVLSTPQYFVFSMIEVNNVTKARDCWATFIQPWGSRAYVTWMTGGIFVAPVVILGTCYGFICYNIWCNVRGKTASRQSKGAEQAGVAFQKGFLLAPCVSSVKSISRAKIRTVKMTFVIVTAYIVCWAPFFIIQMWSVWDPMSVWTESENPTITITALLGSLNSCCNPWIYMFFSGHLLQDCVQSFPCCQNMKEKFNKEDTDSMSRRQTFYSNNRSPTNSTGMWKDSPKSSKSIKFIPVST
T1 sequence (P30518 whole entry): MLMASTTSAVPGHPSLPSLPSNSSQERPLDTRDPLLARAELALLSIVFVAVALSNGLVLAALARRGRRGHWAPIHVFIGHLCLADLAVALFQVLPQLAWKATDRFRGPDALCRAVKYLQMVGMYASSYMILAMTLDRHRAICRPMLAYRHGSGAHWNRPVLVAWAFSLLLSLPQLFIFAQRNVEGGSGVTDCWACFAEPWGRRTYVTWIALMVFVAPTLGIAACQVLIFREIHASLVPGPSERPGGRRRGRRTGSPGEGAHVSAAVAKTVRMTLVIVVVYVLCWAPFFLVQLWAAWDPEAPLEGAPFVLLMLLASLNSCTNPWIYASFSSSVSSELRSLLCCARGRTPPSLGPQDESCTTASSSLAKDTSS

For the compound `NC(=O)c1nc(Cn2nc(-c3ccc(Cl)cc3)n(C[C@H](O)C(F)(F)F)c2=O)nn1-c1ccccc1` [Example 30, 3-({3-(4-Chlorophenyl)-5-oxo-4-[(2S)-3,3,3-trifluoro-2-hydroxypropyl]-4,5-dihydro-1H-1,2,4-triazol-1-yl}methyl)-1-phenyl-1H-1,2,4-triazole-5-carboxamide], the pIC50 (usually the IC50 on a negative log10 scale, so that one unit is a factor of ten) on human V2 receptor was 8.01. On human V1a receptor, the negative logarithm of the IC50 (pIC50) is 7.85 and the “ratio IC50 hV2/hV1a” value is on record as 0.7.

`CCc1cccc(C)c1-n1nc(Cn2nc(-c3ccc(Cl)cc3)n(C[C@H](O)C(F)(F)F)c2=O)nc1C(N)=O` [Example 31, 3-({3-(4-Chlorophenyl)-5-oxo-4-[(2S)-3,3,3-trifluoro-2-hydroxypropyl]-4,5-dihydro-1H-1,2,4-triazol-1-yl}methyl)-1-(2-ethyl-6-methylphenyl)-1H-1,2,4-triazole-5-carboxamide]: the negative-log IC50 (pIC50) at human V2 receptor was 8.10. Also, on human V1a receptor, the pIC50 was 7.84 and the “ratio IC50 hV2/hV1a” value was determined as 0.5.

On to `NC(=O)c1nc(Cn2nc(-c3ccc(Cl)cc3)n(C[C@H](O)C(F)(F)F)c2=O)nn1-c1cccc(F)c1` [Example 32, 3-({3-(4-Chlorophenyl)-5-oxo-4-[(2S)-3,3,3-trifluoro-2-hydroxypropyl]-4,5-dihydro-1H-1,2,4-triazol-1-yl}methyl)-1-(3-fluorophenyl)-1H-1,2,4-triazole-5-carboxamide], for which the pIC50 on human V2 receptor was 7.62; on human V1a receptor, 7.74. For the same compound, the “ratio IC50 hV2/hV1a” value at human V1a receptor amounted to 1.3.

`NC(=O)c1nc(Cn2nc(-c3ccc(Cl)cc3)n(C[C@H](O)C(F)(F)F)c2=O)nn1-c1cccc(Cl)c1` [Example 33, 1-(3-Chlorophenyl)-3-({3-(4-chlorophenyl)-5-oxo-4-[(2S)-3,3,3-trifluoro-2-hydroxypropyl]-4,5-dihydro-1H-1,2,4-triazol-1-yl}methyl)-1H-1,2,4-triazole-5-carboxamide]: on human V2 receptor, the negative logarithm of the IC50 (pIC50) was 8.34. On human V1a receptor, the pIC50 was 7.62 and the “ratio IC50 hV2/hV1a” value stood at 0.2.

As for `COc1ccccc1-n1nc(Cn2nc(-c3ccc(Cl)cc3)n(C[C@H](O)C(F)(F)F)c2=O)nc1C(N)=O` [Example 34, 3-({3-(4-Chlorophenyl)-5-oxo-4-[(2S)-3,3,3-trifluoro-2-hydroxypropyl]-4,5-dihydro-1H-1,2,4-triazol-1-yl}methyl)-1-(2-methoxyphenyl)-1H-1,2,4-triazole-5-carboxamide], the negative-log IC50 (pIC50) at human V2 receptor is 8.12. On human V1a receptor, the negative logarithm of the IC50 (pIC50) is 8.95 and the “ratio IC50 hV2/hV1a” value is on record as 6.9.

With `NC(=O)c1nc(Cn2nc(-c3ccc(Cl)cc3)n(C[C@H](O)C(F)(F)F)c2=O)nn1-c1ccccc1Cl` [Example 35, 1-(2-Chlorophenyl)-3-({3-(4-chlorophenyl)-5-oxo-4-[(2S)-3,3,3-trifluoro-2-hydroxypropyl]-4,5-dihydro-1H-1,2,4-triazol-1-yl}methyl)-1H-1,2,4-triazole-5-carboxamide], the pIC50 is 8.07 on human V2 receptor and 9.11 on human V1a receptor. For the same compound, at human V1a receptor, the “ratio IC50 hV2/hV1a” value is given as 11.1.

Regarding `NC(=O)c1nc(Cn2nc(-c3ccc(Cl)cc3)n(C[C@@H](O)C(F)(F)F)c2=O)nn1-c1ccccc1Cl` [Example 36, 1-(2-Chlorophenyl)-3-({3-(4-chlorophenyl)-5-oxo-4-[(2R)-3,3,3-trifluoro-2-hydroxypropyl]-4,5-dihydro-1H-1,2,4-triazol-1-yl}methyl)-1H-1,2,4-triazole-5-carboxamide], the pIC50 at human V2 receptor is 7.06. Further, on human V1a receptor, the pIC50 was 8.42 and the “ratio IC50 hV2/hV1a” value came out at 23.0.

Take `NC(=O)c1nc(Cn2nc(-c3ccc(Cl)cc3)n(CC(=O)C(F)(F)F)c2=O)nn1-c1ccccc1Cl` [Example 37, 1-(2-Chlorophenyl)-3-{[3-(4-chlorophenyl)-5-oxo-4-(3,3,3-trifluoro-2-oxopropyl)-4,5-dihydro-1H-1,2,4-triazol-1-yl]methyll-1H-1,2,4-triazole-5-carboxamide (ketone form) or 1-(2-Chlorophenyl)-3-{[3-(4-Chlorophenyl)-5-oxo-4-(3,3,3-trifluoro-2,2-dihydroxypropyl)-4,5-dihydro-1H-1,2,4-triazol-1-yl]methyl}-1H-1,2,4-triazole-5-carboxamide (hydrate form)]: the pIC50 at human V2 receptor is 7.87. Besides, on human V1a receptor, the pIC50 is 8.86 and the “ratio IC50 hV2/hV1a” value is on record as 9.9.
